# Measurements reported in patent US20250101023A1, “HETEROARYL DERIVATIVE AND USES THEREOF” (IUCF-HYU (INDUSTRY-UNIVERSITY COOPERATION FOUNDATION …, priority 2022, published 2025).
# How the values were obtained:
# [1] = tested on: SK-Br3 and HCC1954 cells; test: Combined treatment with trastuzumab; format: cell-based; details: 40 nM Example 53 with trastuzumab titration, 72 hours
# Description: The effect of combined administration was investigated in SK-Br3 and HCC1954 cells.
# [2] = tested on: HCC1954 xenograft; test: HCC1954 xenograft model, anticancer efficacy; format: in vivo, mouse; details: 20 mg/kg and 40 mg/kg, i.p. twice a week
# Experimental: A mouse efficacy experiment was conducted after obtaining approval from the Laboratory Animal Ethics Committee of GenNBio (Review No.: GN-IACUC-Research 22-02-07). SK-Br3 and HCC-1954 cells (1×10^6 cells each) mixed with Matrigel (BD Biosciences) were […] injected into 5-week-old female Balb/c nude mice (Orient Bio, Seongnam, Republic of Korea). After tumors reached a size of about 100 mm^3, the compound, trastuzumab (20 mg/kg), and the like were intraperitoneally injected into mice (n=8 per group)(vehicle: 8% DMSO, 4% Tween-80, 88% PBS). The tumor size was measured twice weekly for about 4 weeks and calculated as follows. Volume (mm^3)=(a×b^2)/2; “a”, maximum diameter; “b”, vertical diameter
# [3] = target: EPHA6 (Homo sapiens (Human), UniProt Q9UF33); test: Kinome-wide profiling; format: biochemical; details: read-out: % Residual Activity (mean)
# [4] = target: PAK5 (Homo sapiens (Human), UniProt Q9P286); test: Kinome-wide profiling; format: biochemical; details: read-out: % Residual Activity (mean)
# [5] = target: CLK2 (Homo sapiens (Human), UniProt P49760); test: Kinome-wide profiling; format: biochemical; details: read-out: % Residual Activity (mean)
# [6] = target: EPHA1 (Homo sapiens (Human), UniProt P21709); test: Kinome-wide profiling; format: biochemical; details: read-out: % Residual Activity (mean)
# [7] = target: EPHB1 (Homo sapiens (Human), UniProt P54762); test: Kinome-wide profiling; format: biochemical; details: read-out: % Residual Activity (mean)
# EPHB1, sequence (P54762 18-984): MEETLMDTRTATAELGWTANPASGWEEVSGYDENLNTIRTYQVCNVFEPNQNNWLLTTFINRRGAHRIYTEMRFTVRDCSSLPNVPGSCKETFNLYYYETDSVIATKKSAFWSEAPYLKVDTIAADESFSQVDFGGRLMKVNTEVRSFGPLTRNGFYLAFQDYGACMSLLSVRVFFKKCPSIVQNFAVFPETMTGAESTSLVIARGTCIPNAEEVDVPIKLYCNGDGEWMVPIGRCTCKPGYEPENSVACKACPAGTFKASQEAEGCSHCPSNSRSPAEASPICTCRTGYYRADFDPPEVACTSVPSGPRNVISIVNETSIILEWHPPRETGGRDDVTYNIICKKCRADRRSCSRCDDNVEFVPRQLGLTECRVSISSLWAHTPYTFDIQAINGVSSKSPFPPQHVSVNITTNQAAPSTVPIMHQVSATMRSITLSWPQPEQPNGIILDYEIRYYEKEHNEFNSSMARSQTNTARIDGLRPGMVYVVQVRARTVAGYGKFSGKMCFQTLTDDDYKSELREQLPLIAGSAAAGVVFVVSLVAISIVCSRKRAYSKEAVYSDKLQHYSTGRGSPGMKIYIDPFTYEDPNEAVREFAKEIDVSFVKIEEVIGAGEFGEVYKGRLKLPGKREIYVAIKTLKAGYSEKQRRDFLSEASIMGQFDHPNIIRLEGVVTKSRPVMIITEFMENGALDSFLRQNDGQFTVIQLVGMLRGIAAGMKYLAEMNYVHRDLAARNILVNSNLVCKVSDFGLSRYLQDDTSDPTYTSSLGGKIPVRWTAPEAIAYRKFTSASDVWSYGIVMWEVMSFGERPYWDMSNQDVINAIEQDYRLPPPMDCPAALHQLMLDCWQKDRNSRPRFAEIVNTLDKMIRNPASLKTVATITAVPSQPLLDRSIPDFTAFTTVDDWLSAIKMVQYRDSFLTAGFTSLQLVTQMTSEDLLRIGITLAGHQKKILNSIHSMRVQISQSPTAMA
# [8] = target: TAOK3/JIK (Homo sapiens (Human), UniProt Q9H2K8); test: Kinome-wide profiling; format: biochemical; details: read-out: % Residual Activity (mean)
# [9] = target: STK25/YSK1 (Homo sapiens (Human), UniProt O00506); test: Kinome-wide profiling; format: biochemical; details: read-out: % Residual Activity (mean)
# [10] = target: AURORA C (Homo sapiens (Human), UniProt Q9UQB9); test: Kinome-wide profiling; format: biochemical; details: read-out: % Residual Activity (mean)
# [11] = target: PAK3 (Homo sapiens (Human), UniProt O75914); test: Kinome-wide profiling; format: biochemical; details: read-out: % Residual Activity (mean)
# [12] = target: CDK4/cyclin D1 (Homo sapiens (Human), UniProt P11802); test: Kinome-wide profiling; format: biochemical; details: read-out: % Residual Activity (mean)
# [13] = target: FGFR2 (Homo sapiens (Human), UniProt P21802); test: Kinome-wide profiling; format: biochemical; details: read-out: % Residual Activity (mean)
# FGFR2, sequence (P21802 22-821): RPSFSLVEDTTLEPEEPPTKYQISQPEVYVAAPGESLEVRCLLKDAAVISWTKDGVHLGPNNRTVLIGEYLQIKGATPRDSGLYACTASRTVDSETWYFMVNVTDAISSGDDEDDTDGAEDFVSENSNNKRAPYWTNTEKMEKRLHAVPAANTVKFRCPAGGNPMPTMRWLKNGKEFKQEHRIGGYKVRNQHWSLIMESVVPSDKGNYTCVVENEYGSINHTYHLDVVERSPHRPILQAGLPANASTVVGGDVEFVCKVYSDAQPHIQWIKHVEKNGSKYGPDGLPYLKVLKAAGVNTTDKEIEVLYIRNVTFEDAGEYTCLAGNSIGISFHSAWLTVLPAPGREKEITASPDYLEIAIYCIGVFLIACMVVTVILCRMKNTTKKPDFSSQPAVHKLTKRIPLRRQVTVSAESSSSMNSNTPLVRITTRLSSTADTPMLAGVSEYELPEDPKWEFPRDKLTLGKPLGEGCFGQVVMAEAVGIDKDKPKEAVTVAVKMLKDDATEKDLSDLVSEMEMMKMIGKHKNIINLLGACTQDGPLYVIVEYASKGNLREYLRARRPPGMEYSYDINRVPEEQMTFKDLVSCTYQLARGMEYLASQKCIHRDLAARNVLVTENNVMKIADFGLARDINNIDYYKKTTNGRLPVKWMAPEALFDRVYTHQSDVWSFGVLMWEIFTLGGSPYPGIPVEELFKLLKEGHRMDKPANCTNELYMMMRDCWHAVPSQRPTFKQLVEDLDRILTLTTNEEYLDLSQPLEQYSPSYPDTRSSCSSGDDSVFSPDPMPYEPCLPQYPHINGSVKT
# [14] = target: CAMK1a (Homo sapiens (Human), UniProt Q14012); test: Kinome-wide profiling; format: biochemical; details: read-out: % Residual Activity (mean)
# [15] = target: PAK6 (Homo sapiens (Human), UniProt Q9NQU5); test: Kinome-wide profiling; format: biochemical; details: read-out: % Residual Activity (mean)
# [16] = target: MLCK/MYLK (Homo sapiens (Human), UniProt Q15746); test: Kinome-wide profiling; format: biochemical; details: read-out: % Residual Activity (mean)
# [17] = target: ERN2/IRE2 (Homo sapiens (Human), UniProt Q76MJ5); test: Kinome-wide profiling; format: biochemical; details: read-out: % Residual Activity (mean)
# [18] = target: TLK1 (Homo sapiens (Human), UniProt Q9UKI8); test: Kinome-wide profiling; format: biochemical; details: read-out: % Residual Activity (mean)
# [19] = target: MEK3 (Homo sapiens (Human), UniProt P46734); test: Kinome-wide profiling; format: biochemical; details: read-out: % Residual Activity (mean)
# MEK3, sequence (P46734 whole entry): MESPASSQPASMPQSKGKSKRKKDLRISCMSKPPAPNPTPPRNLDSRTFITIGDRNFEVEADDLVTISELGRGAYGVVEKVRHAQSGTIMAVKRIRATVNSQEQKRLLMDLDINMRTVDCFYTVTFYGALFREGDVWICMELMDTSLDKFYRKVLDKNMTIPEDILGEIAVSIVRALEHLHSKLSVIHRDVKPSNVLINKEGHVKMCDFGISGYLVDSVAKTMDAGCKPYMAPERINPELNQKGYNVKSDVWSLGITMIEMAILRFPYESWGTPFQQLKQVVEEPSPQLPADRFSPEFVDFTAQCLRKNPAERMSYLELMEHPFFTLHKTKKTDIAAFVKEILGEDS
# [20] = target: IKKe/IKBKE (Homo sapiens (Human), UniProt Q14164); test: Kinome-wide profiling; format: biochemical; details: read-out: % Residual Activity (mean)
# [21] = target: MSK1/RPS6KA5 (Homo sapiens (Human), UniProt O75582); test: Kinome-wide profiling; format: biochemical; details: read-out: % Residual Activity (mean)
# [22] = target: PKN1/PRK1 (Homo sapiens (Human), UniProt Q16512); test: Kinome-wide profiling; format: biochemical; details: read-out: % Residual Activity (mean)
# PKN1/PRK1, sequence (Q16512 whole entry): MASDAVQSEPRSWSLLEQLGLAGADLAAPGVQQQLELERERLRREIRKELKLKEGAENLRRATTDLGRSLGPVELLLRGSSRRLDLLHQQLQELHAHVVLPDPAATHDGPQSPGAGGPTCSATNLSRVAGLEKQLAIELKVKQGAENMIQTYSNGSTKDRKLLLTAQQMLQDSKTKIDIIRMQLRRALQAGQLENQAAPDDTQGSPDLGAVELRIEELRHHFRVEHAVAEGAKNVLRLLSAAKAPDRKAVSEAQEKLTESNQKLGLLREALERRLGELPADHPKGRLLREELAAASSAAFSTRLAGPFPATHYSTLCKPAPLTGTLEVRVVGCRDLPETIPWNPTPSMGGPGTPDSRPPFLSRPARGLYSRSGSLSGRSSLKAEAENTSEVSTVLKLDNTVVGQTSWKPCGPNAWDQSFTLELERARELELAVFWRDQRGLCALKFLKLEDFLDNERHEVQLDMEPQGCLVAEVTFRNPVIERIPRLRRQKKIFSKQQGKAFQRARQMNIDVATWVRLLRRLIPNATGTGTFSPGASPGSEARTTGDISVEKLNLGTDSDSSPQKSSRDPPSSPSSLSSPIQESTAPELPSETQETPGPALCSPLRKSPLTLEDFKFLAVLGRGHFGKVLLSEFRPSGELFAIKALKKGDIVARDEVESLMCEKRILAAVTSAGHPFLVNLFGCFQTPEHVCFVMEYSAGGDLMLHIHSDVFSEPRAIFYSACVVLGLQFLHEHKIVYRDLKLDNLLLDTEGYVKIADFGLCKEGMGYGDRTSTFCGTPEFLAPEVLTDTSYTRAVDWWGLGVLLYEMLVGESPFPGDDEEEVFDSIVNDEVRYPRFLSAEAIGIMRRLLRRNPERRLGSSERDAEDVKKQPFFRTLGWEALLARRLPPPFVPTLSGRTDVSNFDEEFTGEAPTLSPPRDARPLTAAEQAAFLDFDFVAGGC
# [23] = target: JAK2 (Homo sapiens (Human), UniProt O60674); test: Kinome-wide profiling; format: biochemical; details: read-out: % Residual Activity (mean)
# JAK2, sequence (O60674 whole entry): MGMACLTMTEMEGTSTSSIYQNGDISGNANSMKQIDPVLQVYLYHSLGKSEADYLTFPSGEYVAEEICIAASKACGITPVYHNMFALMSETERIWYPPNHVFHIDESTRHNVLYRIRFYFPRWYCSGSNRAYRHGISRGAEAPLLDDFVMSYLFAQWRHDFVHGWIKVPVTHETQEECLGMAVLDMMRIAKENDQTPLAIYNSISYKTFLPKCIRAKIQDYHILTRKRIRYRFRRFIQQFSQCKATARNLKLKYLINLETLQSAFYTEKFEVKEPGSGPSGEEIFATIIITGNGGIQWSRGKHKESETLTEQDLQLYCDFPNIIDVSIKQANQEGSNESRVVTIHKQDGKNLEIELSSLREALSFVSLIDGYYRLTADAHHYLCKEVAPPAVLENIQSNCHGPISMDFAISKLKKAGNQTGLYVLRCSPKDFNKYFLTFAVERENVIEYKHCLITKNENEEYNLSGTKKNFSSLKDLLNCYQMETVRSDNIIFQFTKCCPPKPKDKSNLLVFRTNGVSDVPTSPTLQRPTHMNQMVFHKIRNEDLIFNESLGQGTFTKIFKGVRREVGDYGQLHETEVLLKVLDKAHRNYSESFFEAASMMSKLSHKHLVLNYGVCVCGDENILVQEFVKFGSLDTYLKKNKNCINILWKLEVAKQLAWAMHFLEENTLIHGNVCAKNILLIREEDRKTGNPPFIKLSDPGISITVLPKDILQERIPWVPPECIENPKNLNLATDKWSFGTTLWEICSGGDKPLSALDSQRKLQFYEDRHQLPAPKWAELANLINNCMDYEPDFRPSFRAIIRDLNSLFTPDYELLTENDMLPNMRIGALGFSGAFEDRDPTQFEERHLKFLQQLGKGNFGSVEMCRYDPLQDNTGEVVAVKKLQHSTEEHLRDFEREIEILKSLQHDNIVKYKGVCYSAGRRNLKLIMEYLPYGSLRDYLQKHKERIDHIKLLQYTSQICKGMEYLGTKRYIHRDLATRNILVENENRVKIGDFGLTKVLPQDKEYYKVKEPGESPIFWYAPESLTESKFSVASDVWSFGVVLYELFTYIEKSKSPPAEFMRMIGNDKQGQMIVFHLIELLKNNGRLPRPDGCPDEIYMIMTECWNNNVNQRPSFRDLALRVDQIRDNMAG
# [24] = target: DDR2 (Homo sapiens (Human), UniProt Q16832); test: Kinome-wide profiling; format: biochemical; details: read-out: % Residual Activity (mean)
# [25] = target: DYRK4 (Homo sapiens (Human), UniProt Q9NR20); test: Kinome-wide profiling; format: biochemical; details: read-out: % Residual Activity (mean)
# [26] = target: MEKK2 (Homo sapiens (Human), UniProt Q9Y2U5); test: Kinome-wide profiling; format: biochemical; details: read-out: % Residual Activity (mean)
# [27] = target: ROCK2 (Homo sapiens (Human), UniProt O75116); test: Kinome-wide profiling; format: biochemical; details: read-out: % Residual Activity (mean)
# [28] = target: PKA (Homo sapiens (Human), UniProt P17612); test: Kinome-wide profiling; format: biochemical; details: read-out: % Residual Activity (mean)
# [29] = target: SBK1 (Homo sapiens (Human), UniProt Q52WX2); test: Kinome-wide profiling; format: biochemical; details: read-out: % Residual Activity (mean)
# [30] = target: PKCd (Homo sapiens (Human), UniProt Q05655); test: Kinome-wide profiling; format: biochemical; details: read-out: % Residual Activity (mean)
# PKCd, sequence (Q05655 whole entry): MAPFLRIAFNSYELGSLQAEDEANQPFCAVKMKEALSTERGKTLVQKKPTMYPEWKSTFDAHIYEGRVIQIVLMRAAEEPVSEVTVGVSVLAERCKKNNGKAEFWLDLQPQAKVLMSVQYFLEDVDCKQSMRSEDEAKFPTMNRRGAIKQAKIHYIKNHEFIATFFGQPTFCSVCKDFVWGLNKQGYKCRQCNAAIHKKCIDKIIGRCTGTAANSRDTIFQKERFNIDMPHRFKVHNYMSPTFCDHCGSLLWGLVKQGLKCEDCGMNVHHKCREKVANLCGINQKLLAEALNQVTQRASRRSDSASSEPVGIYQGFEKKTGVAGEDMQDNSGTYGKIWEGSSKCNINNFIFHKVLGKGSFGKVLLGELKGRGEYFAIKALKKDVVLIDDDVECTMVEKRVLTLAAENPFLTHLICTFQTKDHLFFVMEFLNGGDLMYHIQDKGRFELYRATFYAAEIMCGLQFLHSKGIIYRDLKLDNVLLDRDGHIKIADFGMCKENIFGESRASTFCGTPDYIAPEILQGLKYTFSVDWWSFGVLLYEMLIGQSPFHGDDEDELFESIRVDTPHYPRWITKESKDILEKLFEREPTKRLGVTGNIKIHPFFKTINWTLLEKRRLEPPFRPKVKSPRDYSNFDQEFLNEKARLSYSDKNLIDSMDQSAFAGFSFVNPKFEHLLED
# [31] = target: CAMK4 (Homo sapiens (Human), UniProt Q16566); test: Kinome-wide profiling; format: biochemical; details: read-out: % Residual Activity (mean)
# [32] = target: c-MET (Homo sapiens (Human), UniProt P08581); test: Kinome-wide profiling; format: biochemical; details: read-out: % Residual Activity (mean)
# [33] = target: PKG1b (Homo sapiens (Human), UniProt Q13976); test: Kinome-wide profiling; format: biochemical; details: read-out: % Residual Activity (mean)
# [34] = target: JAK3 (Homo sapiens (Human), UniProt P52333); test: Kinome-wide profiling; format: biochemical; details: read-out: % Residual Activity (mean)
smiles,measurement,setting,value
"CCn1cnc2c(NCc3ccc(-c4ccccn4)nc3)nc(-c3ccc(N)nc3)nc21 [Example 53, N-([2,2′-bipyridin]-5-ylmethyl)-2-(6-aminopyridin-3-yl)-9-ethyl-9H-purin-6-amine]",anti-proliferative activity of trastuzumab on co-treatment,[1],slightly enhanced
same,anti-proliferative activity of trastuzumab on co-treatment,[1]; listed as Compound 53,slightly increased
same,anticancer efficacy,[2],dose-dependent anticancer efficacy
same,remaining activity at 10 µM,[3],3.04%
same,remaining activity at 10 µM,[4],7.55%
same,remaining activity at 10 µM,[5],11.7%
same,remaining activity at 10 µM,[6],13.2%
same,remaining activity at 10 µM,[7],13.6%
same,remaining activity at 10 µM,[8],23.1%
same,remaining activity at 10 µM,[9],23.1%
same,remaining activity at 10 µM,[10],25.5%
same,remaining activity at 10 µM,[11],29.1%
same,remaining activity at 10 µM,[12],33.5%
same,remaining activity at 10 µM,[13],33.7%
same,remaining activity at 10 µM,[14],34%
same,remaining activity at 10 µM,[15],57.2%
same,remaining activity at 10 µM,[16],63.4%
same,remaining activity at 10 µM,[17],65.4%
same,remaining activity at 10 µM,[18],67.8%
same,remaining activity at 10 µM,[19],73.5%
same,remaining activity at 10 µM,[20],80.1%
same,remaining activity at 10 µM,[21],80.5%
same,remaining activity at 10 µM,[22],85.4%
same,remaining activity at 10 µM,[23],87%
same,remaining activity at 10 µM,[24],87.2%
same,remaining activity at 10 µM,[25],89.3%
same,remaining activity at 10 µM,[26],90%
same,remaining activity at 10 µM,[27],92.2%
same,remaining activity at 10 µM,[28],93.1%
same,remaining activity at 10 µM,[29],94.5%
same,remaining activity at 10 µM,[30],95.2%
same,remaining activity at 10 µM,[31],95.2%
same,remaining activity at 10 µM,[32],96.4%
same,remaining activity at 10 µM,[33],97.6%
same,remaining activity at 10 µM,[34],99.7%
